Reference: patent US20260285857A1, “BICYCLIC AND HETEROCYCLIC AMIDE COMPOUNDS” (priority 2024, published 2026)

Test system: immunoglobulin light chain protein WIL-FL T46L
Test: Differential scanning fluorimetry (thermal shift) assay
Type: binding
Settings: Table A; temperature shift [Tm]compound-[Tm]vehicle; recombinant WIL-FL T46L

| Compound | DSF |
| --- | --- |
| Cc1cc(N2CC[C@](C)(c3ccccc3)C2)cn2nc(C(=O)N3CC[C@@]4(CCN(c5cccc(C(=O)O)n5)C4)C3)nc12 [Compound 267] | ***** (>2.5° C.=*****) |
| Cc1cc(N2CC[C@](C)(c3ccccc3)C2)cn2nc(C(=O)N3CC[C@]4(CCN(c5cccc(C(=O)O)n5)C4)C3)nc12 [Compound 268] | ***** (>2.5° C.=*****) |
| Cc1cc(N2CC[C@](C)(c3ccccc3)C2)cn2nc(C(=O)NC3CCC(O)(c4cccc(C(=O)O)n4)CC3)nc12 (some centres unmarked) [Compound 269] | ***** (>2.5° C.=*****) |
| Cc1cc(N2CC[C@](C)(c3ccccc3)C2)cn2nc(C(=O)N3CC[C@]4(CCN(c5cc(C(=O)O)ccn5)C4)C3)nc12 [Compound 270] | ***** (>2.5° C.=*****) |
| Cc1cc(N2CC[C@](C)(c3ccccc3)C2)cn2nc(C(=O)NC3CCN(c4ccc(C(=O)O)nc4)C3)nc12 (some centres unmarked) [Compound 271] | ***** (>2.5° C.=*****) |
| Cc1cc(N2CC3(CC(NC(=O)c4nc5c(C)cc(N6CC[C@](C)(c7ccccc7)C6)cn5n4)C3)C2)cc(C(=O)O)n1 [Compound 272] | ***** (>2.5° C.=*****) |
| Cc1cc(N2CC[C@](C)(c3ccccc3)C2)cn2nc(C(=O)NC3CCN(c4cccc(C(=O)O)c4)CC3)nc12 [Compound 273] | ***** (>2.5° C.=*****) |
| Cc1cc(N2CC[C@](C)(c3ccccc3)C2)cn2nc(C(=O)NC3CN(c4cccc(C(=O)O)n4)CCC3(C)C)nc12 (some centres unmarked) [Compound 274] | ***** (>2.5° C.=*****) |
| Cc1cc(N2CC[C@](C)(c3ccccc3)C2)cn2nc(C(=O)NC3CCN(c4cccc(C(=O)O)n4)CC3)nc12 [Compound 276] | ***** (>2.5° C.=*****) |
| Cc1cc(N2CC[C@](C)(c3ccccc3)C2)cn2nc(C(=O)NC3CCN(c4ccnc(C(=O)O)c4)C3)nc12 (some centres unmarked) [Compound 277] | ***** (>2.5° C.=*****) |
| Cc1cc(N2CC[C@](C)(c3ccccc3)C2)cn2nc(C(=O)N3CC4CN(c5ccnc(C(=O)O)c5)CC4C3)nc12 (some centres unmarked) [Compound 278] | ***** (>2.5° C.=*****) |
| Cc1cc(N2CC[C@](C)(c3ccccc3)C2)cn2nc(C(=O)N3C[C@H]4C[C@@H]3C[C@H]4Oc3cccc(C(=O)O)n3)nc12 [Compound 280] | ***** (>2.5° C.=*****) |
| Cc1cc(N2CC[C@](C)(c3ccccc3)C2)cn2nc(C(=O)N3CC45CN(c6cccc(C(=O)O)n6)CC4(C3)C5)nc12 (some centres unmarked) [Compound 281] | ***** (>2.5° C.=*****) |
| Cc1cc(N2CC[C@](C)(c3ccccc3)C2)cn2nc(C(=O)NC3(C)CCN(c4ccnc(C(=O)O)c4)CC3)nc12 [Compound 282] | ***** (>2.5° C.=*****) |
| Cc1cc(N2CC[C@](C)(c3ccccc3)C2)cn2nc(C(=O)NC3CCN(c4ccnc(S(C)(=N)=O)c4)CC3)nc12 (some centres unmarked) [Compound 283] | ***** (>2.5° C.=*****) |
| Cc1cc(N2CC[C@](C)(c3ccccc3)C2)cn2nc(C(=O)NC3CCN(c4ccnc(-c5nnn[nH]5)c4)CC3)nc12 [Compound 284] | ***** (>2.5° C.=*****) |
| Cc1cc(N2CC[C@](C)(c3ccccc3)C2)cn2nc(C(=O)NC3CCN(c4cccc(-c5nnn[nH]5)n4)CC3)nc12 [Compound 285] | ***** (>2.5° C.=*****) |
| Cc1cc(N2CC[C@](C)(c3ccccc3)C2)cn2nc(C(=O)N3CCOC4(C3)CN(c3cccc(C(=O)O)n3)C4)nc12 [Compound 286] | ***** (>2.5° C.=*****) |
| Cc1cc(N2CC[C@](C)(c3ccccc3)C2)cn2nc(C(=O)N3CC4CN(c5cccc(C(=O)O)n5)CC(C3)O4)nc12 [Compound 287] | ***** (>2.5° C.=*****) |
| Cc1cc(N2CC[C@](C)(c3ccccc3)C2)cn2nc(C(=O)N3CCCN(c4cccc(C(=O)O)n4)CCC3)nc12 [Compound 288] | ***** (>2.5° C.=*****) |

| Compound | DSF |
| --- | --- |
| Cc1cc(N2CC[C@](C)(c3ccccc3)C2)cn2nc(C(=O)N3CCC4(CCN(C5CCCC(C(=O)O)C5)C4)C3)nc12 (some centres unmarked) [Compound 289] | ***** (>2.5° C.=*****) |
| Cc1noc(N2CCC(NC(=O)c3nc4c(C)cc(N5CC[C@](C)(c6ccccc6)C5)cn4n3)CC2)n1 [Compound 290] | ***** (>2.5° C.=*****) |
| Cc1cc(N2CC3(CCC3c3ccccc3)C2)cn2nc(C(=O)N3C[C@@H]4CN(c5cccc(C(=O)O)n5)C[C@@H]4C3)nc12 (some centres unmarked) [Compound 291] | ***** (>2.5° C.=*****) |
| CNC(=O)c1cc2c(N)cc(N3CC[C@](C)(c4ccccc4)C3)cn2n1 [Compound 292] | *** (>1-1.5° C.=***) |
| C[C@]1(c2ccccc2)CCN(c2cc(O)c3nc(C(=O)N4CC[C@@]5(CCN(c6cccc(C(=O)O)n6)C5)C4)nn3c2)C1 [Compound 293] | **** (>1.5-2.5° C.=****) |
| COc1cc(N2CC[C@](C)(c3ccccc3)C2)cn2nc(C(=O)N3CC[C@@]4(CCN(c5cccc(C(=O)O)n5)C4)C3)nc12 [Compound 294] | ***** (>2.5° C.=*****) |
| Cc1cc(N2CCC(C)(O)C2)cn2nc(C(=O)N3CC4CN(c5cccc(C(=O)O)n5)CC4C3)nc12 (centres unmarked) [Compound 295] | * (0-0.5° C.=*) |
| Cc1cc(N2CCC(C)(C3CC4(CCC4)C3)C2)cn2nc(C(=O)N3C[C@@H]4CN(c5cccc(C(=O)O)n5)C[C@@H]4C3)nc12 (some centres unmarked) [Compound 296] | ** (>0.5-1 °C =**) |
| Cc1cc(N2CC3CC2(c2ccccc2)C3)cn2nc(C(=O)N3C[C@@H]4CN(c5cccc(C(=O)O)n5)C[C@@H]4C3)nc12 [Compound 297] | * (0-0.5° C.=*) |
| Cc1cc(N2CC(C)(C)C(C)(c3ccccc3)C2)cn2nc(C(=O)N3C[C@@H]4CN(c5cccc(C(=O)O)n5)C[C@@H]4C3)nc12 (some centres unmarked) [Compound 298] | ** (>0.5-1 °C =**) |
| Cc1nsc(C2(C)CCN(c3cc(C)c4nc(C(=O)N5C[C@@H]6CN(c7cccc(C(=O)O)n7)C[C@@H]6C5)nn4c3)C2)n1 (some centres unmarked) [Compound 299] | *** (>1-1.5° C.=***) |
| Cc1noc(C2(C)CCN(c3cc(C)c4nc(C(=O)N5C[C@@H]6CN(c7cccc(C(=O)O)n7)C[C@@H]6C5)nn4c3)C2)n1 (some centres unmarked) [Compound 300] | *** (>1-1.5° C.=***) |
| Cc1nnc(C2(C)CCN(c3cc(C)c4nc(C(=O)N5C[C@@H]6CN(c7cccc(C(=O)O)n7)C[C@@H]6C5)nn4c3)C2)s1 (some centres unmarked) [Compound 301] | * (0-0.5° C.=*) |
| Cc1cc(OC[C@H](C)c2ccccc2)cn2nc(C(=O)NC3COC4(CCOC4)C3)nc12 (some centres unmarked) [Compound 303] | ***** (>2.5° C.=*****) |
| Cc1cc(OC[C@H](C)c2ccccc2)cn2nc(C(=O)N3CCC(Cc4ccc(C(=O)O)nc4)CC3)nc12 [Compound 304] | ***** (>2.5° C.=*****) |
| Cc1cc(OC[C@H](C)c2ccccc2)cn2nc(C(=O)NC3CCN(c4cccc(C(=O)O)n4)C3)nc12 (some centres unmarked) [Compound 305] | ***** (>2.5° C.=*****) |
| Cc1cc(OC[C@H](C)c2ccccc2)cn2nc(C(=O)NCC34COC(C3)C4)nc12 [Compound 306] | ***** (>2.5° C.=*****) |
| Cc1cc(OC[C@H](C)c2ccccc2)cn2nc(C(=O)NC3CCN(c4cccc(C(=O)O)n4)CC3)nc12 [Compound 307] | ***** (>2.5° C.=*****) |
| Cc1cc(OC[C@H](C)c2cccc(F)c2)cn2nc(C(=O)NC3CCN(c4ccnc(C(=O)O)c4)CC3)nc12 [Compound 308] | ***** (>2.5° C.=*****) |
| Cc1cc(OC[C@H](C)c2cccc(F)c2)cn2nc(C(=O)N3CC[C@@](C)(O)C3)nc12 [Compound 309] | **** (>1.5-2.5° C.=****) |

| Compound | DSF |
| --- | --- |
| Cc1cc(OC[C@H](C)c2cccc(F)c2)cn2nc(C(=O)NC3CC4(C3)CC(N3CC5C(C3)C5C(=O)O)C4)nc12 (some centres unmarked) [Compound 310] | ***** (>2.5° C.=*****) |
| Cc1cc(OC[C@H](C)c2ccccc2)cn2nc(C(=O)N3CCC4(CCN(c5cccc(C(=O)O)n5)C4)C3)nc12 (some centres unmarked) [Compound 311] | ***** (>2.5° C.=*****) |
| Cc1cc(OC[C@H](C)c2ccccc2)cn2nc(C(=O)O)nc12 [Compound 312] | **** (>1.5-2.5° C.=****) |
| Cc1cc(OC[C@H](C)c2ccccc2)cn2nc(C(=O)NC3CC4(CC(O)C4)C3)nc12 (some centres unmarked) [Compound 313] | ***** (>2.5° C.=*****) |
| Cc1cc(OC[C@H](C)c2ccccc2)cn2nc(C(=O)NC3CC4(C3)CC(N3CC5C(C3)C5C(=O)O)C4)nc12 (some centres unmarked) [Compound 314] | ***** (>2.5° C.=*****) |
| Cc1cc(OC[C@H](C)c2ccccc2)cn2nc(C(=O)NC3CCC(C)(O)C3)nc12 (some centres unmarked) [Compound 315] | **** (>1.5-2.5° C.=****) |
| Cc1cc(OC[C@H](C)c2ccccc2)cn2nc(C(=O)N3CCC(C)(O)C3)nc12 (some centres unmarked) [Compound 316] | **** (>1.5-2.5° C.=****) |
| Cc1cc(OC[C@H](C)c2ccccc2)cn2nc(C(=O)NCC(C)(C)O)nc12 [Compound 317] | ***** (>2.5° C.=*****) |
| Cc1cc(OC[C@H](C)c2ccccc2)cn2nc(C(=O)N[C@@H]3CC[C@H]3O)nc12 [Compound 319] | ***** (>2.5° C.=*****) |
| Cc1cc(OC[C@H](C)c2ccccc2)cn2nc(C(=O)NC3CCN(c4ccnc(C(=O)O)c4)CC3)nc12 [Compound 320] | ***** (>2.5° C.=*****) |
| Cc1cc(OC[C@H](C)c2ccccc2)cn2nc(C(=O)NC3CCN(c4ccnc(C(=O)O)c4)C3)nc12 (some centres unmarked) [Compound 321] | ***** (>2.5° C.=*****) |
| Cc1cc(OC[C@H](C)c2ccccc2)cn2nc(C(=O)N[C@H]3[C@H]4CN[C@@H]3C4)nc12 [Compound 322] | ***** (>2.5° C.=*****) |
| Cc1cc(N2CC[C@](C)(c3ccccc3)C2)cn2nc(S(=O)(=O)NCC(C)(C)O)nc12 [Compound 323] | ***** (>2.5° C.=*****) |
| CNS(=O)(=O)c1nc2c(C)cc(N3CC[C@](C)(c4ccccc4)C3)cn2n1 [Compound 324] | ***** (>2.5° C.=*****) |
| Cc1cc(N2CC[C@](C)(c3ccccc3)C2)cn2nc(S(=O)(=O)NC3CCNCC3)nc12 [Compound 325] | ***** (>2.5° C.=*****) |
| Cc1cc(N2CC[C@](C)(c3ccccc3)C2)cn2nc(S(=O)(=O)NC3CCNC3)nc12 (some centres unmarked) [Compound 326] | ***** (>2.5° C.=*****) |
| Cc1cc(N2CC[C@@](c3ccccc3)(C(F)F)C2)cn2nc(C(=O)NCC(C)(C)O)nc12 [Compound 327] | ***** (>2.5° C.=*****) |
| CNC(=O)c1nc2c(C)cc(N3CC[C@](c4ccccc4)(C(F)F)C3)cn2n1 [Compound 328] | **** (>1.5-2.5° C.=****) |
| CNC(=O)c1nc2c(C)cc(N3CC[C@@](c4ccccc4)(C(F)F)C3)cn2n1 [Compound 329] | ***** (>2.5° C.=*****) |
